Reference: ChEMBL document CHEMBL5126655, “Koshidacins A and B, Antiplasmodial Cyclic Tetrapeptides from the Okinawan Fungus Pochonia boninensis FKR-0564” (J Nat Prod, 2022)
pIC50: −log10 of the molar value.

What was measured:
[1] = Inhibition of HDAC in Plasmodium falciparum infected in human erythrocytes incubated for 2 hr in presence of sodium [14C]acetate by radiometry assay; type: cell-based; conditions: Erythrocyte
Plasmodium falciparum [2] = experiment: Antiplasmodial activity against Plasmodium falciparum K1 assessed as reduction in parasite growth incubated for 72 hr by LDH assay; type: functional, organism-based; conditions: K1, 72 h
Plasmodium falciparum [3] = experiment: Antiplasmodial activity against Plasmodium falciparum FCR3 assessed as reduction in parasite growth incubated for 72 hr by LDH assay; type: functional, organism-based; conditions: FCR3, 72 h
[4] = Cytotoxicity against human MRC5 cells assessed as reduction in cell viability after 24 hrs by MTT assay; type: toxicity, cell-based
Plasmodium berghei = experiment: Antiplasmodial activity against plasmodium berghei N strain infected in ICR(CD1) mouse assessed as inhibition of parasitemia at 30 mg/kg, ip administered for 3 days relative to control; type: functional; conditions: 72 h, time 3 day
[5] = Selectivity index, ratio of CC50 for human MRC5 cells to IC50 for plasmodium falciparum K1; type: toxicity; conditions: read-out: Ratio CC50/IC50
[6] = Selectivity index, ratio of CC50 for human MRC5 cells to IC50 for plasmodium falciparum FCR3; type: toxicity; conditions: read-out: Ratio CC50/IC50

Q: With `CCC(=O)CCCCC[C@@H]1NC(=O)[C@H]2CCCCN2C(=O)[C@H]([C@@H](C)CC)NC(=O)[C@H](Cc2cn(OC)c3ccccc23)NC1=O` [APICIDIN] as the compound, how does the pIC50 [1] read?
A: The pIC50 was 9.15.

Q: What does the source list for `C[C@@H]1CC[C@H]2[C@@H](C)C(=O)O[C@@H]3O[C@@]4(C)CC[C@@H]1[C@]32OO4` [ARTEMISININ]?
A: pIC50 (Plasmodium falciparum [2]): 7.66; pIC50 (Plasmodium falciparum [3]): 7.59; CC50 at 24 h [4]: > 25000 nM; inhibition in vivo at 30 mg/kg (Plasmodium berghei): 99.7%; selectivity ratio [5]: > 1140; selectivity ratio [6]: > 961

Q: With `CC1(C)NC(=O)[C@H](CCCCCC(=O)[C@@H](O)CO)NC(=O)[C@H]2CCCN2C(=O)[C@H](Cc2ccccc2)NC1=O` as the compound, how does the pIC50 (Plasmodium falciparum [2]) read?
A: Its pIC50 is 6.08.

Q: And the pIC50 (Plasmodium falciparum [3])?
A: Its pIC50 is 6.05.

Q: And the CC50 at 24 h [4]?
A: Its CC50 at 24 h is 14700 nM.

Q: And the inhibition in vivo at 30 mg/kg (Plasmodium berghei)?
A: Its inhibition in vivo at 30 mg/kg is 41%.

Q: What about the selectivity ratio [5] of the same compound?
A: Its selectivity ratio is 18.4.

Q: And the selectivity ratio [6]?
A: The selectivity ratio was 16.3.

Q: With `CC1(C)NC(=O)[C@H](CCCCC[C@@H](O)[C@@H](O)CO)NC(=O)[C@H]2CCCN2C(=O)[C@H](Cc2ccccc2)NC1=O` as the compound, how does the pIC50 (Plasmodium falciparum [2]) read?
A: The pIC50 was 4.90.

Q: And the pIC50 (Plasmodium falciparum [3])?
A: The pIC50 was 4.77.

Q: What about the CC50 at 24 h [4] of the same compound?
A: Its CC50 at 24 h is 6800 nM.

Q: And the inhibition in vivo at 30 mg/kg (Plasmodium berghei)?
A: The inhibition in vivo at 30 mg/kg was 18.3%.

Q: And the selectivity ratio [5]?
A: Its selectivity ratio is 0.5.

Q: What about the selectivity ratio [6] of the same compound?
A: The selectivity ratio was 0.4.
